Drawing on patent publication US9409943B2 (Bristol-Myers Squibb Company, priority 2012, dated 2016), this text covers EC50 for ten compounds.

The subject of one test is HCV GT1a(H77) replicon. The test can be described thus: HCV replicon luciferase reporter assay, genotype 1a. It counts as cell-based, HCV genotype 1a. The conditions noted are these: Hepatitis C virus, 72 h, HUH-7 cells, 3 days incubation. The text has this: A stable HCV GT1a(H77) replicon luciferase reporter cell line (Yanagi M, Purcell R H, Emerson S U, et al. Transcripts from a single full-length cDNA clone of hepatitis C virus are infectious when directly transfected into the liver of a chimpanzee. Proc Natl Acad Sci USA 1997; 94(16):8738-8743) was generated as described previously for the genotype 1b(Con1) replicon luciferase cell line. The replicon construct was modified by introducing mutations into the genes encoding the NS3 helicase domain (proline replaced by leucine at position 1496) and NS5A (serine to isoleucine at position 2204) to improve replication in cell culture.
(§1) HCV replicon luciferase assays were developed to monitor the inhibitory effects of compounds described in the disclosure on HCV genotypes 1a and 1b viral replication. HUH-7 cells, constitutively expressing the HCV replicon, were grown in Dulbecco's Modified Eagle Media (DMEM) (Gibco-BRL) containing 10% Fetal calf serum (FCS) (Sigma) and 1 mg/mL G418 (Gibco-BRL). Compounds were serially diluted 3 folds in DMSO for a twenty-point titration and subsequently transferred to sterile 384-well tissue-culture treated plates (Corning cat #3571). The plates were then seeded with 50 μL of cells at a density of 3.0×10^3 cells/well in DMEM containing 4% FCS (final DMSO concentration at 0.5%). After 3 days incubation at 37° C., cells were analyzed for Renilla Luciferase activity using the EnduRen as substrate (Promega cat #E6485). The EnduRen substrate was diluted in DMEM and then added to the plates to a final concentration of 7.5 μM. The plates were incubated for 2 hrs at 37° C. and then read immediately for 30 seconds with Viewlux Imager (PerkinElmer) using a luminescence program. To assess cytotoxicity of compounds, CC50 values were generated by multiplexing the EnduRen-containing plates with Cell Titer-Blue (Promega, cat # G8082). Cell-Titer Blue (3 μL) was added to each well and incubated for 8 hrs at 37° C. The fluorescence signal from each well was read, with an excitation wavelength at 525/10 nm and an emission wavelength of 598/10 nm, using the Viewlux Imager.
(§2) The EC50 values for compounds were calculated by using a four-parameter logistic equation: y=A+((B−A)/(1+((C/x)^D))), where A and B denotes minimal and maximal % inhibition, respectively, C is the EC50, D is the hill slope and x represents compound concentration.
For orientation: A replicon is a self-replicating genome or part of one, used to study replication in cells.

Another test has as its system HCV GT1b(Con1) replicon. The test can be described thus: HCV replicon luciferase reporter assay, genotype 1b. It counts as cell-based, HCV genotype 1b. To be noted: Hepatitis C virus, 72 h, HUH-7 cells, 3 days incubation.
From the text: An HCV GT1b(Con1) replicon cell system was established as described by Lohmann V, Korner F, Koch J, Herian U, Theilmann L, Bartenschlager R., Science 285(5424):110-3 (1999) and modified to introduce a luciferase reporter (Krieger N, Lohmann V, and Bartenschlager R, J. Virol. 75(10):4614-4624 (2001)). cDNA encoding a humanized form of the Renilla luciferase gene, and a linker sequence fused directly to the 3′-end of the luciferase gene were introduced into the replicon construct using an Asc1 restriction site located in core, directly upstream of the neomycin marker gene. The adaptive mutation at position 1179 (serine to isoleucine) was also introduced (Blight K J, Kolykhalov, A A, Rice, C M, Science 290(5498):1972-1974). A stable cell line constitutively expressing this HCV replicon construct was generated by first linearizing plasmid DNAs with ScaI. RNA transcripts were synthesized in vitro using the T7 MegaScript transcription kit (Ambion, Austin, Tex.) according to manufacturer's directions. In vitro transcripts of the cDNA were transfected into the human hepatoma cell line, HUH-7. […] Resulting cell lines were characterized for positive and negative strand RNA production and protein production over time.
as §1, §2

Read-outs that look alike come from different tables or passages of the source.

Take `C[C@@H]1CC/C=C\[C@@H]2C[C@@]2(C(=O)NS(=O)(=O)C2(CF)CC2)NC(=O)[C@@H]2C[C@@H](OC(=O)c3ccccc3C(F)(F)F)CN2C(=O)[C@@H](NC(=O)OC(C)(C)C(F)(F)F)[C@H](C)C1` [Compound 1002, (2R,6S,7R,9R,13aS,14aR,16aS,Z)-14a-(((1-(fluoromethyl)cyclopropyl)sulfonyl)carbamoyl)-7,9-dimethyl-5,16-dioxo-6-((((1,1,1-trifluoro-2-methylpropan-2-yl)oxy)carbonyl)amino)-1,2,3,5,6,7,8,9,10,11,13a,14,14a,15,16,16a-hexadecahydrocyclopropa[e]pyrrolo[1,2-a][1,4]diazacyclopentadecin-2-yl 2-(trifluoromethyl)benzoate]: the EC50 lay in the range of 5.01 to 35 nM in the test with HCV GT1a(H77) replicon (read-out: LE_1a (EC50, range)) and 1.01 to 5 nM with HCV GT1b(Con1) replicon (read-out: LE_1b (EC50, range)).
In the case of `COc1ccc(C(=O)O[C@@H]2C[C@H]3C(=O)N[C@]4(C(=O)NS(=O)(=O)C5(C)CC5)C[C@H]4/C=C\CC[C@@H](C)C[C@@H](C)[C@H](NC(=O)OC(C)(C)C)C(=O)N3C2)cc1` [Compound 1003, (2R,6S,7R,9R,13aS,14aR,16aS,Z)-6-((tert-butoxycarbonyl)amino)-7,9-dimethyl-14a-(((1-methylcyclopropyl)sulfonyl)carbamoyl)-5,16-dioxo-1,2,3,5,6,7,8,9,10,11,13a,14,14a,15,16,16a-hexadecahydrocyclopropa[e]pyrrolo[1,2-a][1,4]diazacyclopentadecin-2-yl 4-methoxybenzoate], the EC50 in the test with HCV GT1a(H77) replicon (read-out: LE_1a (EC50, range)) lay within 5.01 to 35 nM; in the test on HCV GT1b(Con1) replicon (read-out: LE_1b (EC50, range)), 5.01 to 35 nM.
In the case of `COc1ccc(C(=O)O[C@@H]2C[C@H]3C(=O)N[C@]4(C(=O)NS(=O)(=O)C5(C)CC5)C[C@H]4/C=C\CC[C@@H](C)C[C@@H](C)[C@H](NC(=O)OC(C)(C)C(F)(F)F)C(=O)N3C2)cc1` [Compound 1005, (2R,6S,7R,9R,13aS,14aR,16aS,Z)-7,9-dimethyl-14a-(((1-methylcyclopropyl)sulfonyl)carbamoyl)-5,16-dioxo-6-((((1,1,1-trifluoro-2-methylpropan-2-yl)oxy)carbonyl)amino)-1,2,3,5,6,7,8,9,10,11,13a,14,14a,15,16,16a-hexadecahydrocyclopropa[e]pyrrolo[1,2-a][1,4]diazacyclopentadecin-2-yl 4-methoxybenzoate], the EC50 is 1.15 nM in the test with HCV GT1a(H77) replicon (read-out: LE_1a (EC50)); 1.01 to 5 nM in the test with HCV GT1a(H77) replicon (read-out: LE_1a (EC50, range)); 0.75 nM in the test with HCV GT1b(Con1) replicon (read-out: LE_1b (EC50)); 0.51 to 1 nM in the test with HCV GT1b(Con1) replicon (read-out: LE_1b (EC50, range)).
Turning to `C[C@@H]1CC/C=C\[C@@H]2C[C@@]2(C(=O)NS(=O)(=O)C2(CF)CC2)NC(=O)[C@@H]2C[C@@H](OC(=O)c3ccc4ccccc4c3)CN2C(=O)[C@@H](NC(=O)OC(C)(C)C(F)(F)F)[C@H](C)C1` [Compound 1006], the EC50 fell in the range of 1.01 to 5 nM with HCV GT1a(H77) replicon (read-out: LE_1a (EC50, range)) and 1.01 to 5 nM in the test on HCV GT1b(Con1) replicon (read-out: LE_1b (EC50, range)).
With `COc1ccccc1C(=O)O[C@@H]1C[C@H]2C(=O)N[C@]3(C(=O)NS(=O)(=O)C4(CF)CC4)C[C@H]3/C=C\CC[C@@H](C)C[C@@H](C)[C@H](NC(=O)OC(C)(C)C(F)(F)F)C(=O)N2C1` [Compound 1008, (2R,6S,7R,9R,13aS,14aR,16aS,Z)-14a-(((1-(fluoromethyl)cyclopropyl)sulfonyl)carbamoyl)-7,9-dimethyl-5,16-dioxo-6-((((1,1,1-trifluoro-2-methylpropan-2-yl)oxy)carbonyl)amino)-1,2,3,5,6,7,8,9,10,11,13a,14,14a,15,16,16a-hexadecahydrocyclopropa[e]pyrrolo[1,2-a][1,4]diazacyclopentadecin-2-yl 2-methoxybenzoate], the EC50 lay within 5.01 to 35 nM with HCV GT1a(H77) replicon (read-out: LE_1a (EC50, range)) and 1.01 to 5 nM in the test on HCV GT1b(Con1) replicon (read-out: LE_1b (EC50, range)).
Taken in the same sequence, the figures for `C[C@@H]1CC/C=C\[C@@H]2C[C@@]2(C(=O)NS(=O)(=O)C2(CF)CC2)NC(=O)[C@@H]2C[C@@H](OC(=O)c3cccc(F)c3)CN2C(=O)[C@@H](NC(=O)OC(C)(C)C(F)(F)F)[C@H](C)C1` [Compound 1010, (2R,6S,7R,9R,13aS,14aR,16aS,Z)-14a-(((1-(fluoromethyl)cyclopropyl)sulfonyl)carbamoyl)-7,9-dimethyl-5,16-dioxo-6-((((1,1,1-trifluoro-2-methylpropan-2-yl)oxy)carbonyl)amino)-1,2,3,5,6,7,8,9,10,11,13a,14,14a,15,16,16a-hexadecahydrocyclopropa[e]pyrrolo[1,2-a][1,4]diazacyclopentadecin-2-yl 3-fluorobenzoate] were 5.01 to 35 nM and 1.01 to 5 nM.
For `C[C@@H]1CC/C=C\[C@@H]2C[C@@]2(C(=O)NS(=O)(=O)C2(CF)CC2)NC(=O)[C@@H]2C[C@@H](OC(=O)c3ccc4c(c3)OCO4)CN2C(=O)[C@@H](NC(=O)OC(C)(C)C(F)(F)F)[C@H](C)C1` [Compound 1011, (2R,6S,7R,9R,13aS,14aR,16aS,Z)-14a-(((1-(fluoromethyl)cyclopropyl)sulfonyl)carbamoyl)-7,9-dimethyl-5,16-dioxo-6-((((1,1,1-trifluoro-2-methylpropan-2-yl)oxy)carbonyl)amino)-1,2,3,5,6,7,8,9,10,11,13a,14,14a,15,16,16a-hexadecahydrocyclopropa[e]pyrrolo[1,2-a][1,4]diazacyclopentadecin-2-yl benzo[d][1,3]dioxole-5-carboxylate], the EC50 with HCV GT1a(H77) replicon (read-out: LE_1a (EC50)) was 7.98 nM; with HCV GT1a(H77) replicon (read-out: LE_1a (EC50, range)) it was 5.01 to 35 nM; in the test on HCV GT1b(Con1) replicon (read-out: LE_1b (EC50)) it was 1.68 nM; in the test with HCV GT1b(Con1) replicon (read-out: LE_1b (EC50, range)), 1.01 to 5 nM.
For the compound `C[C@H]1CC/C=C\[C@@H]2C[C@@]2(C(=O)NS(=O)(=O)C2(C)CC2)NC(=O)[C@@H]2C[C@@H](OC(=O)c3ccc4c(c3)OCCO4)CN2C(=O)[C@@H](NC(=O)OC(C)(C)C)[C@H](C)C1` [Compound 1012, (2R,6S,7R,9S,13aS,14aR,16aS,Z)-6-((tert-butoxycarbonyl)amino)-7,9-dimethyl-14a-(((1-methylcyclopropyl)sulfonyl)carbamoyl)-5,16-dioxo-1,2,3,5,6,7,8,9,10,11,13a,14,14a,15,16,16a-hexadecahydrocyclopropa[e]pyrrolo[1,2-a][1,4]diazacyclopentadecin-2-yl 2,3-dihydrobenzo[b][1,4]dioxine-6-carboxylate], the EC50 is 5.01 to 35 nM with HCV GT1a(H77) replicon (read-out: LE_1a (EC50, range)) and 1.01 to 5 nM in the test with HCV GT1b(Con1) replicon (read-out: LE_1b (EC50, range)).
Taken in the same sequence, the figures for `C[C@@H]1CC/C=C\[C@@H]2C[C@@]2(C(=O)NS(=O)(=O)C2(C)CC2)NC(=O)[C@@H]2C[C@@H](OC(=O)c3ccc4c(c3)OCCO4)CN2C(=O)[C@@H](NC(=O)OC(C)(C)C)[C@H](C)C1` [Compound 1013, (2R,6S,7R,9R,13aS,14aR,16aS,Z)-6-((tert-butoxycarbonyl)amino)-7,9-dimethyl-14a-(((1-methylcyclopropyl)sulfonyl)carbamoyl)-5,16-dioxo-1,2,3,5,6,7,8,9,10,11,13a,14,14a,15,16,16a-hexadecahydrocyclopropa[e]pyrrolo[1,2-a][1,4]diazacyclopentadecin-2-yl 2,3-dihydrobenzo[b][1,4]dioxine-6-carboxylate] were 1.01 to 5 nM and 1.01 to 5 nM.
The matching figures for `C[C@@H]1CC/C=C\[C@@H]2C[C@@]2(C(=O)NS(=O)(=O)C2(C)CC2)NC(=O)[C@@H]2C[C@@H](OC(=O)c3ccc4c(c3)OCCO4)CN2C(=O)[C@@H](NC(=O)OC(C)(C)C(F)(F)F)[C@H](C)C1` [Compound 1015, (2R,6S,7R,9R,13aS,14aR,16aS,Z)-7,9-dimethyl-14a-(((1-methylcyclopropyl)sulfonyl)carbamoyl)-5,16-dioxo-6-((((1,1,1-trifluoro-2-methylpropan-2-yl)oxy)carbonyl)amino)-1,2,3,5,6,7,8,9,10,11,13a,14,14a,15,16,16a-hexadecahydrocyclopropa[e]pyrrolo[1,2-a][1,4]diazacyclopentadecin-2-yl 2,3-dihydrobenzo[b][1,4]dioxine-6-carboxylate]: 5.01 to 35 nM and 1.01 to 5 nM.

For orientation: EC50 means the concentration needed to bring the measured effect to its halfway point.
